In PubChem BioAssay AID687000 (Broad Institute, 2013):
Values joined by “and” are separate entries in the source; they are usually repeats but may differ in a detail not shown here. Identical values can stand only once. Active and inactive are the calls of the source.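 The calls were made as follows: active = fitted dose curve reaches 40% lysis signal rise at or below the highest valid concentration tested for that sample; inconclusive = flat fit between 30% and 70%, or poor curve fit; inactive = signal falls, stays flat within 30%, or no crossing.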

tested on: C. neoformans lysis, adenylate kinase release luminescence, 4 h; experiment: inducers of Cryptococcus neoformans cell lysis, dose response, AK release luminescence, cherry-picks (AID 687000)

Compound	AC40
CCCOc1ccc(CNC(=S)NCc2ccc(OC(C)C)cc2)cc1	14.3 µM
Cc1cccc(-c2ccc([C@H]3[C@H](CO)N4CCCCN(C(=O)c5ccc6c(c5)OCO6)C[C@@H]34)cc2)c1	> 15 µM (inactive)
Cc1noc(C)c1S(=O)(=O)Nc1ccc2c(c1)CC(=O)N([C@H](C)CO)C[C@H](C)[C@@H](CN(C)S(=O)(=O)c1cn(C)cn1)O2	> 15 µM (inactive)
C[C@@H]1CCCCO[C@H](CN(C)S(=O)(=O)c2cccs2)[C@@H](C)CN([C@@H](C)CO)C(=O)c2cc(NC(=O)CCC(F)(F)F)ccc2O1	> 15 µM (inactive)
COc1cccc(S(=O)(=O)N(C)C[C@@H]2OCc3ccccc3-c3ccccc3C(=O)N([C@@H](C)CO)C[C@@H]2C)c1	> 15 µM (inactive)
O=C(CN(c1ccc(F)cc1)S(=O)(=O)c1ccccc1)N1CCOCC1	> 15 µM (inactive)
CCCC(=O)N1CCC1(C)C(=O)Nc1ccc(C)cc1 (stereo unspecified)	> 28.5 µM (inactive)
CCC(=O)N(C)C[C@@H]1Oc2cc(C#CC(C)(C)O)ccc2S(=O)(=O)N([C@H](C)CO)C[C@H]1C	> 15 µM (inactive)
C[C@@H]1CN([C@H](C)CO)C(=O)Cc2cc(NC(=O)NC3CCCCC3)ccc2O[C@@H]1CN(C)Cc1ccccc1	> 15 µM (inactive)
COC(=O)C1=C(C)N(Cc2ccccc2)C(=O)N[C@H]1c1cccc(F)c1	> 15 µM (inactive)
Cc1ccc2nc(C)c3c(c2c1)OC(C(C)(Cl)Br)C3 (stereo unspecified)	> 15 µM (inactive)
COC(=O)C1=C(C)N(Cc2ccc(Br)cc2)C(=S)NC1c1ccc(OC)cc1 (stereo unspecified)	1.93 µM and 1.57 µM
CO[C@@H]1CN(C)C(=O)c2cc(NS(=O)(=O)c3cccc(C)c3)ccc2OC[C@@H](C)NC[C@H]1C	> 15 µM (inactive)
Cc1cccc(C)c1NC(=O)C1CCCN1C(=O)NCc1ccccc1 (stereo unspecified)	> 15 µM (inactive)
C[C@@H]1CCCCO[C@H](CN(C)C(=O)CCCN(C)C)[C@@H](C)CN([C@H](C)CO)C(=O)c2cc(NC(=O)Cc3ccccc3)ccc2O1	> 15 µM (inactive)
COc1ccc(C(=O)NC(=S)Nc2cccc(Cl)c2N2CCOCC2)cc1[N+](=O)[O-]	> 15 µM (inactive)
C[C@@H]1CCCCO[C@@H](CN(C)C(=O)CCCN(C)C)[C@@H](C)CN([C@H](C)CO)C(=O)c2cc(NC(=O)Cc3ccccc3)ccc2O1	14.8 µM
Cc1ccccc1NC(=O)C(=O)NCCCN1CCCC1=O	> 15 µM (inactive)
O=C(NC(=S)Nc1ccccc1N1CCCC1)c1ccccc1[N+](=O)[O-]	> 15 µM (inactive)
CCCNC(C)C(=O)Nc1ccccc1C (stereo unspecified)	> 15 µM (inactive)
CO[C@H]1CN(C)C(=O)c2cc(NC(=O)C3CC3)ccc2OC[C@@H](C)N(Cc2cncnc2)C[C@H]1C	12.9 µM
C[C@H](CO)N1C[C@H](C)[C@H](CN(C)Cc2ccccc2)OCCCC[C@H](C)Oc2ccc(NS(=O)(=O)c3cccs3)cc2C1=O	> 15 µM (inactive)
S=C(NCc1ccccc1)NCC1COc2ccccc2O1 (stereo unspecified)	9.32 µM
S=C(Nc1ccccc1)Nc1cc(Cl)ccc1Oc1ccccc1	> 7.5 µM (inactive)
COc1ccc(CNC(=S)NCc2ccc(OC(C)C)cc2)cc1	8.39 µM
CCN(Cc1ccccc1)C(=O)COc1ccccc1	> 15 µM (inactive)

Compound	AC40
N#Cc1ccc(C23CC4(C2)[C@H](CN(Cc2ccc(C(F)(F)F)cc2)[C@@H]4c2ccccc2)C3c2ccc(C(F)(F)F)cc2)cc1 (stereo partly specified)	> 15 µM (inactive)
COC(=O)C1=C(C)N(Cc2ccc(F)cc2)C(=S)NC1c1ccc(F)cc1 (stereo unspecified)	6.96 µM
COc1cccc(NC(=S)NC(=O)Cc2ccc(Cl)cc2)c1	1.03 µM
CNC[C@@H]1OCCCC[C@@H](C)Oc2ccc(NC(=O)Nc3ccc4c(c3)OCO4)cc2C(=O)N([C@H](C)CO)C[C@@H]1C	> 15 µM (inactive)
CCN1C(=S)N[C@@H](c2ccccc2)C(C(=O)OC)=C1C	> 15 µM (inactive)
Cc1c(C(=O)NC(=S)Nc2ccccc2N2CCCC2)cccc1[N+](=O)[O-]	> 15 µM (inactive)
O=C(CC1CC1)N1[C@@H]2CN(S(=O)(=O)c3ccccc3)c3ccccc3[C@@H]2[C@@H]1CO	> 16 µM (inactive)
C[C@H](CO)N1C[C@H](C)[C@@H](CN(C)CC2CCOCC2)Oc2ncc(C#Cc3ccc(F)cc3)cc2C1=O	> 15 µM (inactive)
CC(C)C#Cc1ccc([C@@H]2[C@H](CO)N3CCCCN(C(=O)c4ccc5c(c4)OCO5)C[C@@H]23)cc1	> 15 µM (inactive)
COc1cc2c(C(=O)N(C)c3cc(Cl)ccc3OC)cn(C)c(=O)c2cc1OC	> 15 µM (inactive)
O=C(NC1CCCCC1)N[C@H]1C=C[C@@H](CC(=O)N2CCOCC2)O[C@@H]1CO	> 15 µM (inactive)
Cc1cccc(C)c1NC(=O)CN(C)C(=O)C1CCCCC1	> 15 µM (inactive)
S=C(NCCCc1ccccc1)Nc1ccccc1	2.56 µM
Cc1ccc(NC(=O)N2CCCC2C(=O)Nc2c(C)cc(C)cc2C)cc1 (stereo unspecified)	> 15 µM (inactive)
COC(=O)C1=C(C)N(CC(C)C)C(=S)NC1c1ccc(F)cc1 (stereo unspecified)	3.52 µM
CC[C@H](C)[C@@H]1NC(=O)CNC(=O)c2csc(n2)[C@H](C(C)(C)O)OC(=O)C(C)(C)[C@H](CCCC(C)(Cl)Cl)OC(=O)c2csc1n2	2.66 µM
C[C@H]1CN([C@@H](C)CO)C(=O)c2cc(-c3ccc(F)cc3)cnc2O[C@@H]1CN(C)CC1CCCCC1	> 15 µM (inactive)
C[C@@H]1CN([C@@H](C)CO)C(=O)Cc2cc(NC(=O)c3ccncc3)ccc2O[C@H]1CN(C)Cc1ccncc1	> 15 µM (inactive)
Cc1noc(C)c1NC(=O)N(C)C[C@H]1OCCCC[C@H](C)Oc2ccc(NC(=O)NC(C)C)cc2C(=O)N([C@@H](C)CO)C[C@@H]1C	> 15 µM (inactive)
COC(=O)C1=C(C)N(Cc2ccc(F)cc2)C(=S)NC1c1ccc(Cl)cc1 (stereo unspecified)	> 15 µM (inactive)
O=C(NC(=S)Nc1cccc(F)c1)c1cccc([N+](=O)[O-])c1	3.02 µM
COc1ccccc1C#Cc1ccc2c(c1)O[C@H](CN(C)C(C)=O)[C@H](C)CN([C@@H](C)CO)S2(=O)=O	> 15 µM (inactive)
COC(=O)C1=C(C)N(Cc2ccc(Cl)cc2)C(=S)NC1c1cccc(Cl)c1 (stereo unspecified)	2.95 µM
COC(=O)C1=C(C)N(Cc2ccccc2)C(=S)N[C@H]1c1cccc(C(F)(F)F)c1	> 15 µM (inactive)
C[C@H](CO)N1C[C@H](C)[C@H](CN(C)C(=O)Nc2cccc3ccccc23)Oc2ccc(NC(=O)Cc3ccccc3)cc2CC1=O	> 15 µM (inactive)
